From patent US10525026B2, “Intravenous administration of citrulline during surgery” (Vanderbilt University, priority 2015, dated 2020)

Key:
[1] = Intravenous citrulline in piglets: safety and effect on serum arginine levels; assay type: in vivo, Duroc swine; details: 600 mg/kg IV
Description: The objective was to assess the safety of intravenous citrulline and its effect on serum arginine levels in piglets. A total of 9 Duroc swine, aged 5-21 days, with a target minimum weight of 4 kg were utilized. All piglets underwent anesthetic induction and tracheostomy. Central lines were placed in the femoral artery and femoral vein and hemodynamics monitored continuously. Citrulline (600 mg/kg IV) was administered to 5 piglets. Saline was given to control animals. Serum amino acids were drawn before and each hour after citrulline administration.

[2] = Perioperative oral citrulline supplementation in children undergoing congenital cardiac surgery; assay type: in vivo
Description: 40 patients with one of the 5 surgical diagnoses identified above were randomized to receive 5 doses of oral citrulline (1.9 grams/kg) vs. placebo. The first dose was administered immediately prior to surgery and the second dose immediately on arrival in the Pediatric ICU after surgery followed every 12 hours×3 doses.

[3] = Safety and pharmacokinetics of intravenous citrulline, open label dose escalation in children undergoing repair of congenital heart defects; assay type: in vivo; details: for concentration at 4 h: read-out: 4 hour trough citrulline level
Description: The initial goal was to test the safety and pharmacokinetics of three doses of intravenous citrulline in children undergoing surgical repair of specific congenital heart defects. […] An adverse drop in mean arterial pressure was defined as a greater than a twenty percent decrease from baseline. The baseline postoperative mean arterial blood pressure was calculated as the average of mean arterial blood pressure measurements collected every 5 minutes for the 30 minutes immediately preceding the administration of the postoperative dose or infusion.
The original doses selected were 200, 400, and 600 mg/kg based on data from previous animal studies. The original study design was a 4 arm study using the 3 doses and a placebo control.
After pharmacokinetic modeling, the study design was changed to a bolus dose of 150 mg/kg given in the OR on cardiopulmonary bypass followed 4 hours later by a continuous infusion of 9 mg/kg/hour for 48 hours. Another 9 patients were enrolled. The mean plasma levels of both citrulline and arginine in study patients (+IV citrulline) compared to patients in the observational cohort (−IV citrulline) are depicted in FIGS. 11A-B.

[4] = Perioperative intravenous L-citrulline pharmacokinetics, single bolus dose escalation in children undergoing congenital cardiac surgery; assay type: in vivo
Description: To determine clearance of a single bolus dose of IV citrulline and optimal dose frequency, a dose escalation design using three concentrations of IV citrulline: 50, 100, & 150 mg/kg was utilized. The dose of citrulline was given in the operating room immediately after cannulation and initiation of cardiopulmonary bypass. The overall goal was to achieve a sustained citrulline level of 100 μmol/L or more up to four hours after the initial dose. The four hour time point was selected to allow for the surgical procedure to be completed and the patient to return to the ICU postoperatively before further dosing.
Patients were then enrolled using this revised protocol of a combination of a bolus dose of 150 mg/kg in the OR on CPB and a continuous infusion of 9 mg/kg/hr started postop in the PICU at 4 hours after the initial bolus dose.

[5] = Randomized, placebo controlled, double blind intravenous citrulline study (77 patients); assay type: in vivo, children; details: bolus plus infusion protocol, hemofiltration during CPB
Description: An intravenous citrulline study conducted was a randomized, placebo controlled, double blind study with the primary clinical outcome being length of mechanical ventilation postoperatively and secondarily the incidence of postoperative pulmonary hypertension between the 2 treatment groups (citrulline vs placebo).
A total of 77 patients were enrolled at Vanderbilt Children's Hospital. Patients were screened based on the surgical schedule. Based on this schedule, patients undergoing one of the 5 planned cardiac surgeries included in this study were screened (patients undergoing the Norwood procedure are now excluded at the recommendation of the DSMB).
The study was stopped in preparation for a larger multicenter randomized placebo controlled trial. […] These hemofiltration techniques had changed during the study, and the investigators were not aware of these changes.

[6] = Revised dosing protocol for cardiac surgery, 22 patients randomized to placebo and citrulline; assay type: in vivo, children
Description: The study in this example was undertaken to test a revised dosing protocol designed to achieve and maintain therapeutic citrulline levels in the face of ultrafiltration and crystalloid replacement. […] The study recruited 22 patients randomized in equal numbers of 11 patients each to placebo and citrulline arms. Early in the course of the study, it was recognized that one of the two participating centers routinely extubated all patients in the operating room immediately following cessation of cardiopulmonary bypass. This precluded use of the duration of mechanical ventilation as an endpoint. Instead, a post-hoc analysis was applied using the duration of all forms of ventilatory support as a possible endpoint. […] In contrast, contingency table analysis, shown in Table 5, did achieve borderline significance. Overall, the results are considered to represent a strong trend.

[7] = Phase IB single-blind, randomized, placebo controlled PK and safety study of IV L-citrulline in children and infants undergoing CPB; assay type: in vivo
Description: A multicenter, Phase IB single-blind, randomized, placebo controlled study was conducted to determine the pharmacokinetics (PK) and safety of IV L-citrulline administration to children and infants undergoing cardiopulmonary bypass (CPB) for surgical repair of congenital heart defects.
The primary objective of the study was to determine if a revised protocol of intravenous (IV) L-citrulline delivery given peri-operatively achieved a plasma citrulline level of >100 μmol/L in the group given citrulline and to compare that to citrulline levels in the placebo group, during follow-up in children undergoing surgical repair of an atrial septal defect (ASD) and/or a ventricular septal defect (VSD) or a partial or complete atrioventricular septal defect (AVSD).
Twenty two (22) patients were enrolled and treated. The patients received study drug or placebo infusion according to a fixed dosing protocol starting at the initiation of CPB until 48 hours postoperatively or until removal of the arterial line. Study participation ended at discharge or at Day 28 whichever came first. The dosing regimen was designed to maintain plasma citrulline levels in the face of extended hemofiltration.
Plasma citrulline concentration levels were the primary PK variable; these were assessed in blood samples collected at 7 perioperative time points. Secondary PK variables were concentrations of arginine and nitric oxide (NO) metabolites in the same sample set. PK values were compared between groups.
Subjects received an IV citrulline bolus of 150 mg/kg or placebo at the initiation of CPB, followed by the addition of L-citrulline at a concentration of 200 μmol/L or placebo to the filtration or hemoconcentration replacement fluid used during CPB. A citrulline bolus of 20 mg/kg was administered 30 minutes after decannulation from CPB, immediately followed by a 9-mg/kg/hr continuous infusion of citrulline or placebo for 48 hours.
Primary safety assessments included hemodynamic monitoring to identify clinically significant hypotension using age-specific limits. Adverse event information was collected, and postoperative bleeding was recorded.
Further safety, laboratory, and clinical assessments were performed from baseline to discharge, secondary clinical variables included: postoperative mechanical ventilation, duration of total respiratory support, hemodynamic improvement, postoperative PVT by echocardiogram, serum creatinine and liver enzymes, inotrope score, duration of chest tube usage, length of intensive care unit stay, length of hospitalization and survival.
The duration of postoperative invasive mechanical ventilation was derived as the time in hours from separation from cardiopulmonary bypass until endotracheal extubation. If a patient required reintubation within 24 hours after extubation, the reintubation time was added in the main analysis. In a second analysis, the reintubation time was not included.

[8] = bolus 150 mg/kg at beginning of surgery, 4 hours later continuous infusion 9 mg/kg/hr
[9] = original doses 200, 400, and 600 mg/kg intravenous, five patients
[10] = revised dosing protocol, contingency table, 11 patients per arm

NC(=O)NCCCC(N)C(=O)O (stereo not drawn) [citrulline, 2-amino-5-(carbamoylamino)pentanoic acid]
Hemodynamic instability [1]: No hemodynamic instability was observed | Time of peak serum arginine levels following intravenous citrulline administration [1]: 1 to 2 h | Arginine Levels Following intravenous citrulline ([1]; 1 hour post): 535.0 µmol/L | Mean Arterial Blood Pressures Following intravenous Citrulline ([1]; 1 hour post): 67.4 mmHg | Arginine Levels Following intravenous citrulline ([1]; 2 hours post): 559.8 µmol/L | Mean Arterial Blood Pressures Following intravenous Citrulline ([1]; 2 hours post): 64.8 mmHg | Arginine Levels Following intravenous citrulline ([1]; 3 hours post): 498.4 µmol/L | Mean Arterial Blood Pressures Following intravenous Citrulline ([1]; 3 hours post): 62.2 mmHg | Arginine Levels Following intravenous citrulline ([1]; Baseline): 131.5 µmol/L | Mean Arterial Blood Pressures Following intravenous Citrulline ([1]; Pre-dose): 67.0 mmHg | Tolerability / adverse events of oral citrulline ([2]; 1.9 g/kg before CPB, postoperatively and every 12 hours for 48 hours): well tolerated with no evidence of significant adverse events | Plasma citrulline levels ([2]; 5 doses of 1.9 grams/kg, vs. placebo 26, p=0.013): 36 µmol/L | Adverse side effects ([3]; 50 mg/kg intravenous): No adverse side effects were noted | Peak citrulline level ([3]; 50 mg/kg intravenous, patients 6 and 8): approximately 220 μmol/L | Adverse side effects ([3]; 100 mg/kg intravenous): no adverse side effects were noted | Peak citrulline level ([3]; 100 mg/kg intravenous, patients 9 & 10): 375 µmol/L | Peak citrulline level ([3]; 150 mg/kg intravenous, patients 13-16): 660 µmol/L | Adverse side effects [3, 8]: No adverse side effects were noted | Sustained plasma citrulline levels [3, 8]: around 100 μmol/L | Significant adverse events ([3]; bolus 150 mg/kg on CPB, 4 hours later infusion 9 mg/kg/hour for 48 hours): one significant adverse event but it was not related to the use of IV citrulline | concentration at 4 h ([3]; human, plasma, 50 mg/kg intravenous, patients 6 and 8): 40 µM | concentration at 4 h ([3]; human, plasma, 100 mg/kg intravenous, patients 9 & 10): 50 µM | concentration at 4 h ([3]; human, plasma, 150 mg/kg intravenous, patients 13-16): 80 µM | half-life ([3]; human, plasma, intravenous bolus 50, 100, 150 mg/kg): ~1.42 h | Adverse effects [3, 9]: no adverse effects were noted | Plasma levels achieved [3, 9]: very high | Adverse effects including hypotension ([4]; IV bolus 50, 100, 150 mg/kg): no adverse effects including hypotension | ½ life of the bolus doses ([4]; IV bolus 50, 100, 150 mg/kg): 60 to 90 min | concentration at 4 h ([4]; human, plasma, 150 mg/kg IV bolus after initiation of CPB, read-out: Four hour citrulline levels): ~100 µM | Reaching the sustained target plasma citrulline level of 100 μmol/L [5]: a majority who received citrulline did not reach the therapeutic sustained target plasma citrulline level | Systolic and diastolic blood pressure versus placebo ([6]; FIG. 18A): No significant change in systolic and diastolic blood pressure | Mean arterial pressure versus placebo ([6]; FIG. 18B): No significant change in the mean arterial pressure | Inotrope scores versus placebo ([6]; particularly from 15 to 18 hours onward following ICU admission): markedly better inotrope scores | Adverse effects upon hemodynamic parameters ([6]; revised dosing protocol): No adverse effects upon hemodynamic parameters were observed | Number of patients with Duration of Respiratory Support >50 hours [6, 10]: 2 | Number of patients with Duration of Respiratory Support ≤50 hours [6, 10]: 7 | Plasma citrulline levels ([7]; bolus 150 mg/kg, 200 μmol/L in filtration fluid, bolus 20 mg/kg, infusion 9 mg/kg/hr for 48 hours): > 100 µmol/L | Sustained plasma citrulline levels ([7]; bolus 150 mg/kg, 200 μmol/L in priming and hemofiltration fluid, bolus 20 mg/kg, infusion 9 mg/kg/hr for 48 hours): around 100 μmol/L | Duration of invasive mechanical ventilation, Kaplan-Meier analysis versus placebo ([7]; excluding re-intubation, Wilcoxon p=0.0222, ANOVA t-test p=0.0317): reduced duration of mechanical ventilation | Mean duration of invasive mechanical ventilation ([7]; including the reintubation time, placebo 37 hours): 5 h | Composite durations of mechanical ventilation and inotrope therapy versus placebo ([7]; longer of the two durations, surrogate for ICU stay): shorter composite durations of mechanical ventilation and inotrope therapy | Patients extubated in the operating room ([7]; one site, 6 patients per group, placebo 33%): 100%
